Reference: paper PMC10994559 (PLOS Neglected Tropical Diseases, 2024)
Entries after “also recorded” stand apart in the source; their conditions may differ.

How the values were obtained:
[1] = test system: L. major axenic amastigotes; experiment: L. major axenic amastigote viability, resazurin reduction; conditions: Leishmania major; for viability at 2.5 µM / viability at 25 µM: 72 h; for viability at 2.5 µM: read-out: Residual viability, L.major amastigote (2.5 µM); for viability at 25 µM: read-out: Residual viability, L.major amastigote (25 µM); for EC50: read-out: EC50 L. major axenic amastigote
In short: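 Axenic L. major LV561 amastigotes were grown in Grace medium with 20% FCS, pH 5.4, at 33°C and seeded at 0.5x10^5 cells/well with compounds for 72 h. Resazurin was then added for 6 h and fluorescence read at ex 550/em 590 nm; hits were retested at 2.5 μM.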

T. brucei BSF proteome = experiment: Label-free LC-MS/MS proteomics after PHT-39 exposure; format: cell-based, Trypanosoma brucei
Experimental: 4 x 10^7 cells were harvested by centrifugation (1000*g) after 48 h from cultures in logarithmic growth phase and washed thrice with PBS. Samples were subjected to lysis, tryptic digest and reductive alkylation using standard procedures. LC-MS/MS was performed by the OMICS Proteomics Facility at Charles University Biocev on an UltiMate 3000 RSLCnano System (Thermo Fisher Scientific) coupled to a Orbitrap Fusion mass spectrometer (Thermo Fisher Scientific). Mass spectra were analyzed by label-free quantification using MaxQuant version 2.1.0.0 [30] searching the T. brucei brucei 927 annotated protein database (release 57) from TriTrypDB [31]. Minimum peptide length was set at seven amino acids and false discovery rates of 0.01 were calculated at the levels of peptides, proteins, and modification sites based on the number of hits against the reversed sequence database. When the identified peptide sequence set of one protein contained the peptide set of another protein, these two proteins were assigned to the same protein group. P-values were calculated, applying t-test–based statistics using Perseus. Proteomics data have been deposited to the ProteomeXchange Consortium via the PRIDE partner repository with the data set identifier PXD043204.

[2] = test system: human hepatocyte carcinoma HepG2 cells; experiment: Cytotoxicity assay HepG2, resazurin reduction; format: cell-based
Experimental: Mammalian cell lines (J774 and HepG2) were passaged in RPMI media supplemented with MEM, Pen-Strep (1%) and 10% FCS. Cultures were kept at 37°C incubator with 5% CO2 in filter-cap flasks.
Murine macrophage cells (J774) and human hepatocyte carcinoma HepG2 cells were seeded at 0.5x10^5 cell/well in 384 well plates in triplicate, exposed to serial dilution of compounds, dispensed using an Echo 650 acoustic dispenser (Labcyte). After incubation for 72 h at 37°C, 5% CO2, cell viability was determined using fluorescence resazurin reduction assay (λEx: 550 nm; λEm: 590 nm).

T. brucei BSF = experiment: Cell cycle (nuclei/kinetoplast count, DAPI) after PHT-39 treatment; format: cell-based, Trypanosoma brucei; conditions: 1 x EC50, 24 h
Experimental: 10^6 cells were harvested by centrifugation (1000*g) after 24 h from cultures in logarithmic growth phase and washed once with serum-free HMI-9. After fixation in 2% formaldehyde cell were applied to a glass slide and mounted with Vectashield Antifade mounting medium with 4′,6-diamidino2-phenylindole (DAPI) for fluorescence microscopy imaging on a Leica TCS SP8 WLL SMD-FLIM inverted confocal microscope. The number of nuclei (N) and kinetoplasts (K) per cell were then counted for 100 cells in each respective replicate (n = 3), allowing determination of cell cycle stage.

T. brucei 2T1 RNAi lines = experiment: Dose response after targeted stem-loop RNAi knockdown; format: cell-based, Trypanosoma brucei
Experimental: Selected genes with the high reads were validated by individual RNAi targeting. Briefly, gene-specific RNAi fragments of 400–600 bp were amplified with PCR primers designed with RNAit tool (S1 Table) and cloned into pRPa^iSL to generate stem-loop, ‘hairpin’ dsRNA to induce RNAi knockdown. The AscI linearized plasmid was transfected into 2T1 cells and positive colonies were selected with hygromycin (2.5 μg/ml). Positive, puromycin sensitive clones were analysed by PHT-39 dose response analysis after 24 h tetracycline induction and compared to uninduced controls and parental lines.

[3] = 24 h tetracycline induction vs uninduced

SMILES: C[C@@H]1[C@H](O)[C@@H](C)/C=C/C=C/C=C/C=C/C=C/C=C/C=C/[C@H](O[C@@H]2O[C@H](C)[C@@H](O)[C@H](N)[C@@H]2O)C[C@@H]2O[C@](O)(C[C@@H](O)C[C@@H](O)[C@H](O)CC[C@@H](O)C[C@@H](O)CC(=O)O[C@H]1C)C[C@H](O)[C@H]2C(=O)O [AmB, amphotericin B, reference compound]
- viability at 2.5 µM [1]: 2.71 ± 1.02%
- viability at 25 µM [1]: 0.33 ± 2.12%
- EC50 [1]: 0.3 µM

SMILES: CC[C@@H](C)[C@H](c1nc2ccccc2n1Cc1cn(-c2ccc(C(F)(F)F)cc2)nn1)N1C(=O)c2ccccc2C1=O [PHT-39]
- Abundance change FAZ localized protein Tb927.1.4280 (T. brucei BSF proteome; 3.9 μM (1× EC50), 48 h): 0.62 fold
- Abundance change Hsp104 homolog Tb927.2.5980 (T. brucei BSF proteome; 3.9 μM (1× EC50), 48 h): 1.4 fold
- Abundance change PIP39 (Tb927.9.6090) (T. brucei BSF proteome; 3.9 μM (1× EC50), 48 h): 1.6 fold
- Abundance change axonemal protein SAXO (Tb927.8.6240) (T. brucei BSF proteome; 3.9 μM (1× EC50), 48 h): 0.65 fold
- PHT-39 ratio (protein abundance) (T. brucei BSF proteome; protein 2-oxoglutarate dehydrogenase E1 component, Tb927.11.1450): 1.73
- PHT-39 ratio (protein abundance) (T. brucei BSF proteome; protein 2-oxoglutarate dehydrogenase E1 component, Tb927.11.9980): 1.93
- PHT-39 ratio (protein abundance) (T. brucei BSF proteome; protein ACS1, Tb927.7.6180): - ∞
- PHT-39 ratio (protein abundance) (T. brucei BSF proteome; protein Aconitase, Tb927.10.14000): 1.39
- PHT-39 ratio (protein abundance) (T. brucei BSF proteome; protein CIF1 (TOEFAZ1), Tb927.11.15800): 0.46
- PHT-39 ratio (protein abundance) (T. brucei BSF proteome; protein CIF3, Tb927.10.13100): - ∞
- PHT-39 ratio (protein abundance) (T. brucei BSF proteome; protein CIF4, Tb927.10.8240): 0.88
- PHT-39 ratio (protein abundance) (T. brucei BSF proteome; protein F1 alpha, Tb927.7.7430, Tb927.7.7420): 1.31
- PHT-39 ratio (protein abundance) (T. brucei BSF proteome; protein F1 beta, Tb927.3.1380): 1.33
- PHT-39 ratio (protein abundance) (T. brucei BSF proteome; protein F1 gamma, Tb927.10.180): 1.23
- PHT-39 ratio (protein abundance) (T. brucei BSF proteome; protein F1 p18, Tb927.5.1710): 1.90
- PHT-39 ratio (protein abundance) (T. brucei BSF proteome; protein FPRC, Tb927.10.6360): 0.72
- PHT-39 ratio (protein abundance) (T. brucei BSF proteome; protein Fo 8, Tb927.4.3450): ∞
- PHT-39 ratio (protein abundance) (T. brucei BSF proteome; protein Fo ATBTB1, Tb927.10.520): 1.48
- PHT-39 ratio (protein abundance) (T. brucei BSF proteome; protein Fo ATBTB3, Tb927.11.6250): 1.53
- PHT-39 ratio (protein abundance) (T. brucei BSF proteome; protein Fo ATBTB4, Tb927.10.9830): 1.36
- PHT-39 ratio (protein abundance) (T. brucei BSF proteome; protein Fo ATBTB6, Tb927.11.1270): 1.40
- PHT-39 ratio (protein abundance) (T. brucei BSF proteome; protein Fo ATBTB12, Tb927.5.3090): 3.78
- PHT-39 ratio (protein abundance) (T. brucei BSF proteome; protein Fo OSCP, Tb927.10.8030): 2.93
- PHT-39 ratio (protein abundance) (T. brucei BSF proteome; protein Fo d, Tb927.5.2930): 1.35
- PHT-39 ratio (protein abundance) (T. brucei BSF proteome; protein Fo e, Tb927.11.600): 1.09
- PHT-39 ratio (protein abundance) (T. brucei BSF proteome; protein Fo f, Tb927.3.1690): 1.36
- PHT-39 ratio (protein abundance) (T. brucei BSF proteome; protein Fo i/j, Tb927.3.2880): 1.66
- PHT-39 ratio (protein abundance) (T. brucei BSF proteome; protein Fo k, Tb927.7.840): 3.17
- PHT-39 ratio (protein abundance) (T. brucei BSF proteome; protein Glutamate dehydrogenase, Tb927.9.5900): 1.53
- PHT-39 ratio (protein abundance) (T. brucei BSF proteome; protein PIP39, Tb927.9.6090): 1.62
- PHT-39 ratio (protein abundance) (T. brucei BSF proteome; protein PPDK, Tb927.11.6280): ∞
- PHT-39 ratio (protein abundance) (T. brucei BSF proteome; protein Proline dehydrogenase, Tb927.7.210): 1.66
- PHT-39 ratio (protein abundance) (T. brucei BSF proteome; protein SAXO, Tb927.8.6240): 0.65
- PHT-39 ratio (protein abundance) (T. brucei BSF proteome; protein Tb927.1.4280): 0.63
- Difference (LFQ intensity treated vs untreated) (T. brucei BSF proteome; protein Tb927.10.4770, phosphatidylinositol-4-phosphate 5-kinase, putative): 2.042
- Difference (LFQ intensity treated vs untreated) (T. brucei BSF proteome; protein Tb927.4.3450, Mitochondrial ATP synthase subunit, putative): 5.909
- Difference (LFQ intensity treated vs untreated) (T. brucei BSF proteome; protein Tb927.6.980;Tb927.6.970;Tb927.6.960;Tb927.6.1020;Tb927.6.1010, cysteine peptidase, Cathepsin L-like): 5.36
- Difference (LFQ intensity treated vs untreated) (T. brucei BSF proteome; protein Tb927.7.2660, zinc finger protein family member, putative): 3.448
- Difference (LFQ intensity treated vs untreated) (T. brucei BSF proteome; protein Tb927.9.12700, phospholipase A1, putative): 3.03
- PHT-39 ratio (protein abundance) (T. brucei BSF proteome; protein citrate synthase, Tb927.10.13430): 1.66
- PHT-39 ratio (protein abundance) (T. brucei BSF proteome; protein isocitrate dehydrogenase, Tb927.8.3690): 1.46
- PHT-39 ratio (protein abundance) (T. brucei BSF proteome; protein mitochondrial malate dehydrogenase, Tb927.10.2560): 1.32
- PHT-39 ratio (protein abundance) (T. brucei BSF proteome; protein succinyl-CoA ligase beta-chain, Tb927.10.7410): 1.79
- PHT-39 ratio (protein abundance) (T. brucei BSF proteome; protein succinyl-CoA synthetase alpha subunit, Tb927.3.2230): 1.72
- Selectivity ([2]; HepG2 cytotoxicity vs intramacrophage L. infantum): over 90 fold
- EC50 ([2]; Homo sapiens, HepG2, 72 h, cytotoxicity, 72 h, read-out: EC50 (CT50) HepG2): > 100 µM
- Proportion of 2K1N cells, decreased to (T. brucei BSF): approximately 57%
- Proportion of 2K2N cells, decreased to (T. brucei BSF): approximately 28%
- viability at 2.5 µM [1]: 62.1 ± 3.43%
- viability at 25 µM [1]: 2.6%
- EC50 [1]: 2.6 ± 1.8 µM
- Sensitivity shift after RNAi of HSP104 homolog (ClpB1) Tb927.2.5980 (T. brucei 2T1 RNAi lines): did not elicit a significant PHT-39 sensitivity shift; also recorded: did not determine a significant sensitivity shift
- Sensitivity shift after RNAi of nicotinamidase paralogs Tb927.9.3970 and Tb927.9.4040 (T. brucei 2T1 RNAi lines): did not elicit a significant PHT-39 sensitivity shift; also recorded: did not determine a significant sensitivity shift
- EC50 shift after RNAi of miltefosine transporter Tb927.11.3350 (T. brucei 2T1 RNAi lines; [3]): mild but significant EC50 increase
- Sensitivity shift after knockdown of ESAG5 (T. brucei 2T1 RNAi lines; [3]): very modest but significant sensitivity shift
